Results: article PMC3785825 (Journal of the Royal Society Interface, 2013)
No end group written: not given here.

What was measured:
CGRP receptors = details: double alanine mutant R^11AR^18A; cited from earlier work
Source text: The loop conformations spanned a large proportion of the space available to ECL2 (figure 4a). […] ECL2 forms an extended loop; this conformation is often seen as two antiparallel beta-strands in all peptide GPCRs for which structures are available, creating a large interface for peptide–receptor contacts. Here, we re-interpret seve ...

[1] = tested on: CLR A273L/RAMP1 (CGRP receptor); assay: AM-stimulated cAMP (alphascreen), A273L mutant; type: cell-based, human; details: residue A273 (mutated to leucine); effect of mutation on AM
Source text: (§1) Curve fitting was done with […]
(§2) To explore the effects of the above mutants further, their ability to respond to AM through cAMP production was subsequently investigated. […] There was especially good agreement between the two agonists for the central area of functional importance ranging from D280 to T288. […] The effect of mutations at the N- and C-termini of ECL2 was more variable between the two peptides.

[2] = tested on: CLR R274A/RAMP1 (CGRP receptor); assay: AM-stimulated cAMP (alphascreen), R274A mutant; type: cell-based, human
Source text: as §1, §2

[3] = tested on: CLR D280A/RAMP1 (CGRP receptor); assay: AM-stimulated cAMP (alphascreen), D280A mutant; type: cell-based, human
Source text: as §1, §2

[4] = tested on: CLR W283A/RAMP1 (CGRP receptor); assay: AM-stimulated cAMP (alphascreen), W283A mutant; type: cell-based, human
Source text: as §1, §2

[5] = tested on: CLR I284A/RAMP1 (CGRP receptor); assay: AM-stimulated cAMP (alphascreen), I284A mutant; type: cell-based, human; details: residue I284; effect of alanine mutation on AM
Source text: as §1, §2

[6] = tested on: CLR S285A/RAMP1 (CGRP receptor); assay: AM-stimulated cAMP (alphascreen), S285A mutant; type: cell-based, human; details: residue S285; effect of alanine mutation on AM
Source text: as §1, §2

[7] = tested on: CLR T288A/RAMP1 (CGRP receptor); assay: AM-stimulated cAMP (alphascreen), T288A mutant; type: cell-based, human; details: residue T288; effect of alanine mutation on AM
Source text: as §1, §2

[8] = tested on: CLR Y277A/RAMP1 (CGRP receptor); assay: AM-stimulated cAMP (alphascreen), Y277A mutant; type: cell-based, human; details: Cos 7 cells
Source text: as §1, §2

[9] = tested on: CLR Y278A/RAMP1 (CGRP receptor); assay: AM-stimulated cAMP (alphascreen), Y278A mutant; type: cell-based, human; details: Cos 7 cells
Source text: as §1, §2

[10] = tested on: CLR L290A/RAMP1 (CGRP receptor); assay: AM-stimulated cAMP (alphascreen), L290A mutant; type: cell-based, human; details: Cos 7 cells
Source text: as §1, §2

[11] = tested on: CLR L291A/RAMP1 (CGRP receptor); assay: AM-stimulated cAMP (alphascreen), L291A mutant; type: cell-based, human; details: Cos 7 cells
Source text: as §1, §2

[12] = tested on: CLR ECL2 mutants with human RAMP1; assay: AM-stimulated cAMP (alphascreen), ECL2 alanine scan; type: cell-based; details: some mutants (not given); Cos 7 cells
Source text: as §1, §2

CGRP receptor = details: AM at the CGRP receptor versus CGRP; cited from earlier work

Substance | reduction in affinity (CGRP receptors) [fold] | AM effect [1] | cAMP response / Emax ([2]; R274A, Cos 7 cells) | AM effect ([2]; residue R274, effect of alanine mutation on AM) | cAMP response / Emax ([3]; D280A, Cos 7 cells) | AM effect ([3]; residue D280, effect of alanine mutation on AM) | cAMP response / Emax ([4]; W283A, Cos 7 cells) | AM effect ([4]; residue W283, effect of alanine mutation on AM) | AM effect [5] | AM effect [6] | AM effect [7] | effect on pEC50 [8] | reduction in maximal cAMP response [8] | effect on pEC50 [9] | reduction in maximal cAMP response [9] | potency versus WT [10] | potency versus WT [11] | activation of the receptor [12] | affinity, folds less than that for CGRP (CGRP receptor)
R^11AR^18A: double alanine mutant of CGRP, literature (ACDTATCVTHALAGLLSASGGVVKNNFVPTNVGSKAF; not fully specified; ends and bridges not checked; UniProt P06881 83-119, looked up, variant R11A R18A) | 100 |  |  |  |  |  |  |  |  |  |  |  |  |  |  |  |  |  | 
adrenomedullin [AM] |  | √ | so low that an Emax could not be reliably determined | √ | so low that an Emax could not be reliably determined | √ | so low that an Emax could not be reliably determined | √ | √ | √ | √ | did not show AM-mediated effects on pEC50 | approximately 25% | did not show AM-mediated effects on pEC50 | approximately 25% | not significantly affected | not significantly affected | impossible to measure any activation of the receptor | approximately 10 folds
